2 compounds from patent US5688767A, “Treatment of endotoxin-associated disorders with cationic peptides” (priority 1996, dated 1997) can be followed below.

In brackets after ≈: the same amount, converted by molar mass.

A short description of data set [1]: MIC of common antibiotics in the presence of sub-MIC levels of cationic peptides. The data set is classed as cell-based. The source says:
The ability of the cationic peptides to work synergistically was examined by determining the MIC values for some commonly used antibiotics in the presence of sub-MIC levels of cationic peptides (Table 4). […] This may be due to the high membrane permeabilizing activity of CEMA (see below). However, the peptides did lower the MIC of polymyxin B, possibly due to the fact that they are all taken up by the same pathway and are therefore aiding each other's uptake. Of interest is the influence that melittin has on the MIC of polymyxin B, given the weak membrane permeabilizing activity of melittin.

The test system of data set [2] is P. aeruginosa H309 or E. cloacae 218R1. Briefly: Lysozyme lysis assay (outer membrane permeabilization). Format: cell-based, Pseudomonas aeruginosa; Enterobacter cloacae. The settings on record: 50 μg/ml lysozyme, varying concentrations of compound. As to the method:
Membrane permeabilization by polycationic compounds was measured in two different assays. The first assay measured membrane disruption by the ability of lysozyme to reach the periplasm and cause cell lysis. […] The uptake of lysozyme into whole cells due to membrane permeabilization by various compounds was previously described in Hancock, et al., Antimicrobial Agents and Chemo., 19:777, 1981. Overnight cultures of P. aeruginosa H309 or E. cloacae 218R1 grown in LB-S were diluted 1 in 50 in fresh medium and grown to an OD600 =0.5-0.6. The cells were harvested in a Silencer H-103N clinical centrifuge at 1800 g for 10 min, washed once with one volume of assay buffer (5 mM HEPES pH 7.2, 5 mM KCN), and resuspended in the same buffer to an OD600 of 0.5. Assays consisted of 600 μl of cells with 50 μg/ml of chicken egg white lysozyme and varying concentrations of cationic compounds. Cell lysis was measured as a decrease in the OD600 in a Perkin-Elmer dual beam spectrophotometer. Parallel experiments performed without lysozyme enabled the measurement of the lytic activity of the compounds themselves. To test whether or not permeability to lysozyme could be inhibited by divalent cations, various concentrations of MgCl2 were added to the assay after the addition of lysozyme and before the addition of the test compound.

The subject of the next data set is S. typhimurium. Kind of data set: microbe, parasite or virus in culture. Format: cell-based, Salmonella typhimurium. As to the method: The minimum inhibitory concentrations of (MIC) of CEME, CEMA and melittin were determined for a number of different bacteria (Table 2). Briefly, cells were grown overnight at 37° C. in LB-S (Luria broth without any salt supplement) and diluted one in 10,000 in the same medium to give concentrations of about 10^4 to 10^5 CFU/ml. The broth dilutions were set up in a 96 well microtiter plate by putting 200 μl of LB-S containing the initial concentration of antibiotic or compound in column 1 and 100 μl of the same medium in columns 2-12. The compounds were diluted by taking 100 μl of broth from column 1 and mixing it with column 2, resulting in a one in two dilution. This was continued to column 10. Finally, 10 μl of bacteria were pipetted into columns 1-11, and the plates incubated overnight at 37° C. The next day the plates were scored for growth in the wells, and the MIC determined.
Bacteria included the Bort strain of E. coli (Bortolussi, et al., Inf. Immun., 25:293, 1979) that was originally derived from a case of neonatal meningitis, and which is therefore considered a relevant pathogenic strain to study, and the 0111:B4 strain of E. coli (kindly provided by Dr. D. Morrison) which is a standard source of endotoxin. (Kelly, et al., Inf. Immun., 59:4491, 1991). In addition, P. aeruginosa PA01 strain H103, P. aeruginosa M2, P. aeruginosa K799, Eschericha coli UB 1005, Enterobacter cloacae 218S, Salmonella typhimurium MS7953s, Klebsiella pneumoniae ATCC 13883, Xanthomonas maltophilia ATCC 13637, and Acinetobacter calcoacetious 8193 were employed. LPS was obtained from E. coli Bort by the technique of Westphal and Jann, (Westphal, et al., Acad. Press, Inc. NY., 5:83) and from P. aeruginosa H103 by the method of Darveau and Hancock, (Darveau, et al., J. Bacteriol, 155:831, […]). E. coli 0111:B4 LPS was purchased from Sigma.

The test system of another data set is RAW 264.7 cells. Kind of data set: RAW cell viability by Trypan blue exclusion. Format: cell-based, murine. To be noted: up to 50 μg.

For the compound polymyxin B, the “MIC in the presence of” value in data set [1] (CEMA 0.7 μg/ml) turned out to be 0.5 μg/m1; in data set [1] (CEMA 1.4 μg/ml), 0.12 μg/m1; in data set [1] (CEME 0.6 μg/ml) it was 0.5 μg/m1; in data set [1] (CEME 1.2 μg/ml) it was 0.25 μg/m1; in data set [1] (Melittin 2 μg/ml) it was 0.5 μg/m1; in data set [1] (Melittin 4 μg/ml) it was 0.06 μg/m1. Also, in data set [1] (No peptide), the “MIC in the presence of” value is listed as 1 μg/m1.
For the compound `CC[C@H](C)[C@H](NC(=O)CNC(=O)[C@@H](NC(=O)[C@H](CCCCN)NC(=O)[C@H](CCCCN)NC(=O)[C@H](Cc1ccccc1)NC(=O)[C@H](CC(C)C)NC(=O)[C@H](CCCCN)NC(=O)[C@H](Cc1c[nH]c2ccccc12)NC(=O)[C@@H](N)CCCCN)[C@@H](C)CC)C(=O)NCC(=O)N[C@@H](C)C(=O)N[C@H](C(=O)N[C@@H](CC(C)C)C(=O)N[C@@H](CCCCN)C(=O)N[C@H](C(=O)N[C@@H](CC(C)C)C(=O)N[C@H](C(=O)N[C@H](C(=O)NCC(=O)N[C@@H](CC(C)C)C(=O)N1CCC[C@H]1C(=O)N[C@@H](C)C(=O)N[C@@H](CC(C)C)C(=O)N[C@@H](CCCCN)C(=O)N[C@@H](CC(C)C)C(=O)N[C@H](C(=O)N[C@@H](CCCCN)C(=O)O)[C@@H](C)O)[C@@H](C)O)[C@@H](C)O)C(C)C)C(C)C` [CEMA], in data set [2], the “permeabilization of outer membrane to lysozyme” value is “stronger permeabilizer for lysozyme than polymyxin B”. Moreover, the MIC against S. typhimurium (Salmonella typhimurium MS7953s) is 4 µg/mL (≈ 1.3 µM); in the data set on S. typhimurium (strain C587, Parent of C590), 5.6 µg/mL (≈ 1.83 µM); against S. typhimurium (strain C590, Defensin sensitive), 1.4 µg/mL (≈ 0.457 µM). In addition, the RAW cell viability result in the data set with RAW 264.7 cells is reported as “no apparent decrease”.
